In ChEMBL document CHEMBL4630905 (2021):

Key:
[1] = target: GABA-A receptor; anion channel; assay: GPCRScan assay: inhibition of GABAA/BZP; assay type: protein-complex assay, Rattus norvegicus; set-up: radioligand conc. used [nm] 0.6 – 4.0, parental cells brain tissue
[2] = target: T1, Bromodomain-containing protein 2 (Homo sapiens, UniProt P25440); assay: BET mutant TR-FRET assay (BRD2 BD1)
[3] = target: T1, Bromodomain-containing protein 2; assay: BET mutant TR-FRET assay (BRD2 BD2)
[4] = target: T2, Bromodomain-containing protein 3 (Homo sapiens, UniProt Q15059); assay: BET mutant TR-FRETassay (BRD3 BD1)
T2 sequence (Q15059 2-726 limits assumed, change not shown): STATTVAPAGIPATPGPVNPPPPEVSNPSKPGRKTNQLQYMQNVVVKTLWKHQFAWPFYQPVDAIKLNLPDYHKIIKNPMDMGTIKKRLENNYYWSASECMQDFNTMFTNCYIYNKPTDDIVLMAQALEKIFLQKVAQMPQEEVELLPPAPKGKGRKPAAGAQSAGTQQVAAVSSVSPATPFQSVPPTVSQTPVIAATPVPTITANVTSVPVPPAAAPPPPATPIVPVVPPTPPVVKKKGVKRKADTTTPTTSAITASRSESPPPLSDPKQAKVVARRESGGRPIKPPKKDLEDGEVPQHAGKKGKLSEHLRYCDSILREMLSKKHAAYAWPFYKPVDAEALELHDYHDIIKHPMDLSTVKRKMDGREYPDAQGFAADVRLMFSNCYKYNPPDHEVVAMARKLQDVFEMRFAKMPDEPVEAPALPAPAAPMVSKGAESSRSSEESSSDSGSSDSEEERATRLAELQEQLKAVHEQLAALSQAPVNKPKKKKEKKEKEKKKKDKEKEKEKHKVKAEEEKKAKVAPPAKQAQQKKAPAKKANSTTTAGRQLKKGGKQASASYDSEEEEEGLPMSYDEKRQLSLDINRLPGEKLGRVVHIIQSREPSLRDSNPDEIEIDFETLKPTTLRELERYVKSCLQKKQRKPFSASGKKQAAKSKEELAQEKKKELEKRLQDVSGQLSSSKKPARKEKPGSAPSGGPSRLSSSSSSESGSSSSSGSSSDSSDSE

[5] = target: T2, Bromodomain-containing protein 3; assay: BET mutant TR-FRET assay (BRD3 BD2)
[6] = target: T3, Bromodomain testis-specific protein (Homo sapiens, UniProt Q58F21); assay: BET mutant TR-FRET assay (BRDT BD1)
[7] = target: T3, Bromodomain testis-specific protein; assay: BET mutant TR-FRET assay (BRDT BD2)
[8] = target: 5-hydroxytryptamine receptor 1A (Homo sapiens) (UniProt P08908); conditions: Compound concentration 10.0 uM
[9] = target: 5-hydroxytryptamine receptor 1B (Homo sapiens) (UniProt P28222); conditions: Compound concentration 10.0 uM
5-hydroxytryptamine receptor 1B (Homo sapiens), sequence (P28222 whole entry): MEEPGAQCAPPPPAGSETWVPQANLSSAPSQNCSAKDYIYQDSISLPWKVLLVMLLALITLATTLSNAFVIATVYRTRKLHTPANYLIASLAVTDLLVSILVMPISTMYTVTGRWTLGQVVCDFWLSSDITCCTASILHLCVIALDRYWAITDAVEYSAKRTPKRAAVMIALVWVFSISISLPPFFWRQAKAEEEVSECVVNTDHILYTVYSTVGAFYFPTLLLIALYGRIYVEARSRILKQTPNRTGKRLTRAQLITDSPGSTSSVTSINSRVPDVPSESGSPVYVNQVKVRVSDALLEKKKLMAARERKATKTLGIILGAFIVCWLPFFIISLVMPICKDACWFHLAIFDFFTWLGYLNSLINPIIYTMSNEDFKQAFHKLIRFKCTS

[10] = target: 5-hydroxytryptamine receptor 1D (Homo sapiens) (UniProt P28221); conditions: Compound concentration 10.0 uM
[11] = target: 5-hydroxytryptamine receptor 1E (Homo sapiens) (UniProt P28566); conditions: Compound concentration 10.0 uM
[12] = target: 5-hydroxytryptamine receptor 2A (Homo sapiens) (UniProt P28223); conditions: Compound concentration 10.0 uM
5-hydroxytryptamine receptor 2A (Homo sapiens), sequence (P28223 whole entry): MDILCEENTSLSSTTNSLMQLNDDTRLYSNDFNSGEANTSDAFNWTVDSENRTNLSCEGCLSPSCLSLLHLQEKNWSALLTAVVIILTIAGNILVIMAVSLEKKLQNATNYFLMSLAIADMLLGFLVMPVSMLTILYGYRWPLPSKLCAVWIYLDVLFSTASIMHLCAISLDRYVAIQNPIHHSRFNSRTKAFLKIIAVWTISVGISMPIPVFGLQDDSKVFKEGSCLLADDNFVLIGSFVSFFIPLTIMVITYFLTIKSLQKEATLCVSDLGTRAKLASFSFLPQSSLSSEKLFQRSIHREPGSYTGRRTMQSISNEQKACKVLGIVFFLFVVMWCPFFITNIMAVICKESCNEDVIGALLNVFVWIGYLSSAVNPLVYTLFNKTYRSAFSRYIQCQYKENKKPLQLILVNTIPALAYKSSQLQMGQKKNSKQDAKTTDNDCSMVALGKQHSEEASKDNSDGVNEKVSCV

[13] = target: 5-hydroxytryptamine receptor 2C (Homo sapiens) (UniProt P28335); conditions: Compound concentration 10.0 uM
[14] = target: 5-hydroxytryptamine receptor 3A (Homo sapiens) (UniProt P46098); conditions: Compound concentration 10.0 uM
[15] = target: 5-hydroxytryptamine receptor 5A (Homo sapiens) (UniProt P47898); conditions: Compound concentration 10.0 uM
[16] = target: D(1A) dopamine receptor (Homo sapiens) (UniProt P21728); conditions: Compound concentration 10.0 uM
[17] = target: D(3) dopamine receptor (Homo sapiens) (UniProt P35462); conditions: Compound concentration 10.0 uM
[18] = target: D(4) dopamine receptor (Homo sapiens) (UniProt P21917); conditions: Compound concentration 10.0 uM
[19] = target: D(1B) dopamine receptor (Homo sapiens) (UniProt P21918); conditions: Compound concentration 10.0 uM
[20] = target: Sodium-dependent serotonin transporter (Homo sapiens) (UniProt P31645); conditions: Compound concentration 10.0 uM
[21] = target: Sodium-dependent noradrenaline transporter (Homo sapiens) (UniProt P23975); conditions: Compound concentration 10.0 uM
Sodium-dependent noradrenaline transporter (Homo sapiens), sequence (P23975 whole entry): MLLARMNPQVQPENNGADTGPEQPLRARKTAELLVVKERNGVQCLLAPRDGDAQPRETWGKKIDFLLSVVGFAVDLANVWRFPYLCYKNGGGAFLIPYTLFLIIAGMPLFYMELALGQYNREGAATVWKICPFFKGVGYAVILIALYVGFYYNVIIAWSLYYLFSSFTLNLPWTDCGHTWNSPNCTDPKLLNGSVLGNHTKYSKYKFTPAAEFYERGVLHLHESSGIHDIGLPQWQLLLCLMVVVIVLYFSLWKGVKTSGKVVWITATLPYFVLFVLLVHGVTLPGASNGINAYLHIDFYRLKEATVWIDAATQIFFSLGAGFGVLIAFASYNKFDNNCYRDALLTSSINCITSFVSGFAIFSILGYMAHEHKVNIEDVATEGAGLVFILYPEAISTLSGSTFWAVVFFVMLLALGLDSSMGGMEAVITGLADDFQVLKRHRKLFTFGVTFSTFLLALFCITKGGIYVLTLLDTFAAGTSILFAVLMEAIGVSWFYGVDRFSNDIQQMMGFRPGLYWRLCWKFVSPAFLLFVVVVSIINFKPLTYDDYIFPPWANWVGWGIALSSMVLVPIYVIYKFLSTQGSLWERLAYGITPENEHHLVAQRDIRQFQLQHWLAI

[22] = target: Sodium-dependent dopamine transporter (Homo sapiens) (UniProt Q01959); conditions: Compound concentration 10.0 uM
[23] = target: T4, GABA-A receptor; anion channel (Rattus norvegicus) (UniProt O09028+P15431+P18506+P18508+P19969+P20236+P23574+P23576+P28471+P28473+P30191+P62813+P63079+P63138+Q91ZM7+Q9ES14); conditions: Compound concentration 10.0 uM
[24] = target: Histamine H1 receptor (Homo sapiens) (UniProt P35367); conditions: Compound concentration 10.0 uM
Histamine H1 receptor (Homo sapiens), sequence (P35367 whole entry): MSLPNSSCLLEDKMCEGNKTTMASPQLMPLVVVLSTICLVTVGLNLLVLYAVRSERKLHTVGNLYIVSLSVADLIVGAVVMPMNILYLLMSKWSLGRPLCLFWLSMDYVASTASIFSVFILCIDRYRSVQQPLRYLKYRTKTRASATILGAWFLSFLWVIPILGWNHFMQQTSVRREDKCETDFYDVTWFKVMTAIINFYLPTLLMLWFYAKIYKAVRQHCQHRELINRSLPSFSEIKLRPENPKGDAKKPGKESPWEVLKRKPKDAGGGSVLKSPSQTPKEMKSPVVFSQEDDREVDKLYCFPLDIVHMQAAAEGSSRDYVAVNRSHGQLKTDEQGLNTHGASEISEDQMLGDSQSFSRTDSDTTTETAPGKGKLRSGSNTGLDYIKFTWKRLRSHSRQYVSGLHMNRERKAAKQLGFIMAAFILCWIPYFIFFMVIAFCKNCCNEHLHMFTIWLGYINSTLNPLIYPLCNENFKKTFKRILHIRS

[25] = target: Histamine H2 receptor (Homo sapiens) (UniProt P25021); conditions: Compound concentration 10.0 uM
Histamine H2 receptor (Homo sapiens), sequence (P25021 whole entry): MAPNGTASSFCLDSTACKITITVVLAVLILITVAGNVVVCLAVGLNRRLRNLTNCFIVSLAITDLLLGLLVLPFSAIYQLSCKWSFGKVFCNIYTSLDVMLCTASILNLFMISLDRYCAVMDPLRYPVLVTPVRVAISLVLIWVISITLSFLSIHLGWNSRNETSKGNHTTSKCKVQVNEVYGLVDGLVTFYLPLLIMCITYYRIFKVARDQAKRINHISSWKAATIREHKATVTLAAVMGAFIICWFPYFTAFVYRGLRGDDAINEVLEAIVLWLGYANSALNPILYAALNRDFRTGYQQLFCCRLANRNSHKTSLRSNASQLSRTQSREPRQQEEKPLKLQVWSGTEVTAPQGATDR

[26] = target: Histamine H3 receptor (Homo sapiens) (UniProt Q9Y5N1); conditions: Compound concentration 10.0 uM
Histamine H3 receptor (Homo sapiens), sequence (Q9Y5N1 whole entry): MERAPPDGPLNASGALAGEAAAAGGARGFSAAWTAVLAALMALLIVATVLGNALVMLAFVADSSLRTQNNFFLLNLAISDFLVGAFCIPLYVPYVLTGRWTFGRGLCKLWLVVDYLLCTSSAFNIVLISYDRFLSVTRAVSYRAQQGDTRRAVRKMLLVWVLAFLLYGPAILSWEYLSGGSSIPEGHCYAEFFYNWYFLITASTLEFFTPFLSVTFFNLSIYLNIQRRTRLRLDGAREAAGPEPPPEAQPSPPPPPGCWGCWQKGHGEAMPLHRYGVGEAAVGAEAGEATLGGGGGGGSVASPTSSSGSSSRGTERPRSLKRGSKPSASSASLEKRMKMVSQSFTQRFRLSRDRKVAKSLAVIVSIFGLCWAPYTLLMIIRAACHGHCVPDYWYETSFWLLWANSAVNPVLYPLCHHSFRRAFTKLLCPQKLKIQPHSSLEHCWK

[27] = target: Alpha-1A adrenergic receptor (Homo sapiens) (UniProt P35348); conditions: Compound concentration 10.0 uM
[28] = target: Alpha-1B adrenergic receptor (Homo sapiens) (UniProt P35368); conditions: Compound concentration 10.0 uM
[29] = target: Alpha-2A adrenergic receptor (Homo sapiens) (UniProt P08913); conditions: Compound concentration 10.0 uM
[30] = target: Alpha-2B adrenergic receptor (Homo sapiens) (UniProt P18089); conditions: Compound concentration 10.0 uM
[31] = target: Alpha-2C adrenergic receptor (Homo sapiens) (UniProt P18825); conditions: Compound concentration 10.0 uM
[32] = target: Beta-1 adrenergic receptor (Homo sapiens) (UniProt P08588); conditions: Compound concentration 10.0 uM
[33] = target: Beta-2 adrenergic receptor (Homo sapiens) (UniProt P07550); conditions: Compound concentration 10.0 uM
[34] = target: Muscarinic acetylcholine receptor M1 (Homo sapiens) (UniProt P11229); conditions: Compound concentration 10.0 uM
[35] = target: Muscarinic acetylcholine receptor M2 (Homo sapiens) (UniProt P08172); conditions: Compound concentration 10.0 uM
[36] = target: Muscarinic acetylcholine receptor M3 (Homo sapiens) (UniProt P20309); conditions: Compound concentration 10.0 uM
Muscarinic acetylcholine receptor M3 (Homo sapiens), sequence (P20309 whole entry, looked up): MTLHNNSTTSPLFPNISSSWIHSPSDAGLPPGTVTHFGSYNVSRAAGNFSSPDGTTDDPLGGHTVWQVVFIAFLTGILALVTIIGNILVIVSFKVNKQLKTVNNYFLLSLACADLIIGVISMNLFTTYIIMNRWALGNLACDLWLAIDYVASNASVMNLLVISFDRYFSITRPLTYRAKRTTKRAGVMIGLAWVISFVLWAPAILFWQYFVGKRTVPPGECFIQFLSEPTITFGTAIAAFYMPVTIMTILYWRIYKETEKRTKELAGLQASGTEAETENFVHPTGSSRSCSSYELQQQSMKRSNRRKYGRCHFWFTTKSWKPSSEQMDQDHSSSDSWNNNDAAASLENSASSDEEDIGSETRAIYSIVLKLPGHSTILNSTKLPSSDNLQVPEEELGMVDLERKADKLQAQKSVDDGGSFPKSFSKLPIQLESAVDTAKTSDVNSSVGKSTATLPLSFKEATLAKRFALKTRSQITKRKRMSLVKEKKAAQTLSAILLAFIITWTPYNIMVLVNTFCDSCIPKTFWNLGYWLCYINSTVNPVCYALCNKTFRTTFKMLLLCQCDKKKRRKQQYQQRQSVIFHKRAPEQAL

[37] = target: Muscarinic acetylcholine receptor M4 (Homo sapiens) (UniProt P08173); conditions: Compound concentration 10.0 uM
[38] = target: Muscarinic acetylcholine receptor M5 (Homo sapiens) (UniProt P08912); conditions: Compound concentration 10.0 uM
[39] = target: Beta-3 adrenergic receptor (Homo sapiens) (UniProt P13945); conditions: Compound concentration 10.0 uM
[40] = target: T4, GABA-A receptor; anion channel (Rattus norvegicus); conditions: Compound concentration 10.0 uM; remark: listed apart in the source
Rattus norvegicus = species: Rattus norvegicus; conditions: Compound concentration 10.0 uM
[41] = target: Alpha-1D adrenergic receptor (Homo sapiens) (UniProt P25100); conditions: Compound concentration 10.0 uM
[42] = target: Sigma intracellular receptor 2 (Homo sapiens) (UniProt Q5BJF2); conditions: Compound concentration 10.0 uM

T1 sequence (P25440 whole entry, looked up, change not shown): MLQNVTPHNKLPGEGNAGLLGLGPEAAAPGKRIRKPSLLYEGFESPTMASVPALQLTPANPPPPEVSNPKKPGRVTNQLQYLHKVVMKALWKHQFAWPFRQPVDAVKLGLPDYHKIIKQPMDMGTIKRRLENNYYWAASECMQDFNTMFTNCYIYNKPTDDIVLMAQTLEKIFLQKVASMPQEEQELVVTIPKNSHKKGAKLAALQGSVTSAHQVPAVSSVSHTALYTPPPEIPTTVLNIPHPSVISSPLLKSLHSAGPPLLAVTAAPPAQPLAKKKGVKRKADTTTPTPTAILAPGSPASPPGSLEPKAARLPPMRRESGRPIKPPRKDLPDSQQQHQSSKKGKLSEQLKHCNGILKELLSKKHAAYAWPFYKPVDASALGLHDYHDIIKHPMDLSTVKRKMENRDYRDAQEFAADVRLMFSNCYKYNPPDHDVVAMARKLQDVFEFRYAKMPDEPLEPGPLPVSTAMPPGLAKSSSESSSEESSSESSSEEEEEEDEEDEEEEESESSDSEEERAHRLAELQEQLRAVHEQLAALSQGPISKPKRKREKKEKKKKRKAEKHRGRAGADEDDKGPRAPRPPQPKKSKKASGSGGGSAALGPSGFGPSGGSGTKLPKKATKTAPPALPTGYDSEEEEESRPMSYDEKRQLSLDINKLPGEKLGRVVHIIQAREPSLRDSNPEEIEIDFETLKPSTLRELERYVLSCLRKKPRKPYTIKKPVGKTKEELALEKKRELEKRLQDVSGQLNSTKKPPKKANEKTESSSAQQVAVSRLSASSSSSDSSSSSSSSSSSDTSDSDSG

- Ki [1]: 2540 nM
- pIC50 [2]: 5.6
- pIC50 [3]: 4.8
- pIC50 [4]: 5.4
- pIC50 [5]: 4.7
- pIC50 [6]: 5.2
- pIC50 [7]: 5.1
- inhibition [8]: 16.9%
- inhibition [9]: 1.93%
- inhibition [10]: 33.1%
- inhibition [11]: 9.79%
- inhibition [12]: 2.71%
- inhibition [13]: 3.86%
- inhibition [14]: 1.04%
- inhibition [15]: 10.1%
- inhibition [16]: 21.2%
- inhibition [17]: 15.5%
- inhibition [18]: 17.4%
- inhibition [19]: 35.4%
- inhibition [20]: 13.8%
- inhibition [21]: 32.4%
- inhibition [22]: 8.66%
- inhibition [23]: 14.9%
- inhibition [24]: 11.7%
- inhibition [25]: 21.6%
- inhibition [26]: -2.09%
- inhibition [27]: 10.1%
- inhibition [28]: 1.98%
- inhibition [29]: 9.8%
- inhibition [30]: 28.5%
- inhibition [31]: 10.8%
- inhibition [32]: 2.98%
- inhibition [33]: 4.04%
- inhibition [34]: 12%
- inhibition [35]: 5.25%
- inhibition [36]: 28.9%
- inhibition [37]: -3%
- inhibition [38]: 7.44%
- inhibition [39]: 35.1%
- inhibition [40]: 86.3%
- inhibition (Rattus norvegicus): -8.18%
- inhibition [41]: 7.87%
- inhibition [42]: 44.1%
Compound: Cc1cc2c(-c3ccco3)cnc(N[C@H]3CCN(C)C[C@@H]3C(=O)NC3CCCCC3)c2[nH]c1=O [GSK791]
